In brackets after ≈: the same amount, converted by molar mass. Counter-ions that a name gives are not always drawn. Like-named read-outs stand apart in the source and are kept apart here.
Experiments:
Test in all cases: antimicrobial activity, serial dilution method on agar plate
Type in all cases: cell-based
[1] = system: Escherichia Coli NIHJ JC-2 (IFO 12734); details: for MIC: Escherichia coli, read-out: Minimum Inhibitory Concentration
Description: (§1) The antimicrobial activity of the following test compounds on various test organisms listed below was determined by the serial dilution method on agar plate (Heart Infusion agar produced by Difco Co.) (see CHEMOTHERAPY 22, pp. 1126-1128 (1974)), and the minimum inhibitory concentrations (mcg/ml) obtained are shown in Table 1 below.
(§2) A sample of each test organism was prepared so that the population of the organism was 1×10^8 cells/ml (O.D. 660 mμ=0.07 to 0.16) and 1×10^6 cells/ml (which was obtained by diluting the above 1×10^8 cells/ml preparation).

[2] = system: Klebsiella pneumoniae
Description: as §1, §2

[3] = system: Proteus rettgeri NIH 96; details: Providencia rettgeri
Description: as §1, §2

[4] = system: Pseudomonas aeruginosa ATCC 10145
Description: as §1, §2

[5] = system: Pseudomonas aeruginosa E-2
Description: as §1, §2

[6] = system: Pseudomonas aeruginosa NCTC 10490
Description: as §1, §2

[7] = system: Salmonella typhi 0-901 (NCTC 8393); details: Salmonella enterica
Description: as §1, §2

[8] = system: Serattia marcescens IFO 12648
Description: as §1, §2

[9] = system: Shigella Sonnei EW 33; details: read-out: Minimum Inhibitory Concentration
Description: as §1, §2

[10] = system: Staphylococcus aureus FDA 209 P
Description: as §1, §2

[11] = system: Streptococcus pyogenes IID S-23
Description: as §1, §2

[12] = inoculum 1 × 10^6 cells/ml, read-out: Minimum Inhibitory Concentration
[13] = inoculum 1 × 10^8 cells/ml, read-out: Minimum Inhibitory Concentration
[14] = NIH96, inoculum 1 × 10^6 cells/ml, read-out: Minimum Inhibitory Concentration
[15] = NIH96, inoculum 1 × 10^8 cells/ml, read-out: Minimum Inhibitory Concentration
[16] = ATCC10145, inoculum 1 × 10^6 cells/ml, read-out: Minimum Inhibitory Concentration
[17] = ATCC10145, inoculum 1 × 10^8 cells/ml, read-out: Minimum Inhibitory Concentration
[18] = E2, inoculum 1 × 10^6 cells/ml, read-out: Minimum Inhibitory Concentration
[19] = E2, inoculum 1 × 10^8 cells/ml, read-out: Minimum Inhibitory Concentration
[20] = NCTC10490, inoculum 1 × 10^6 cells/ml, read-out: Minimum Inhibitory Concentration
[21] = NCTC10490, inoculum 1 × 10^8 cells/ml, read-out: Minimum Inhibitory Concentration
[22] = read-out: Minimum Inhibitory Concentration, inoculum 1 × 10^6 cells/ml
[23] = read-out: Minimum Inhibitory Concentration, inoculum 1 × 10^8 cells/ml
[24] = FDA209, inoculum 1 × 10^6 cells/ml, read-out: Minimum Inhibitory Concentration
[25] = FDA209, inoculum 1 × 10^8 cells/ml, read-out: Minimum Inhibitory Concentration
[26] = IIDS23, inoculum 1 × 10^6 cells/ml, read-out: Minimum Inhibitory Concentration
[27] = IIDS23, inoculum 1 × 10^8 cells/ml, read-out: Minimum Inhibitory Concentration
[28] = NIH96, read-out: Minimum Inhibitory Concentration, inoculum 1 × 10^8 cells/ml
[29] = ATCC10145, read-out: Minimum Inhibitory Concentration, inoculum 1 × 10^8 cells/ml
[30] = E2, read-out: Minimum Inhibitory Concentration, inoculum 1 × 10^8 cells/ml
[31] = NCTC10490, read-out: Minimum Inhibitory Concentration, inoculum 1 × 10^8 cells/ml
[32] = FDA209, read-out: Minimum Inhibitory Concentration, inoculum 1 × 10^8 cells/ml
[33] = IIDS23, read-out: Minimum Inhibitory Concentration, inoculum 1 × 10^8 cells/ml

Row | SMILES | MIC ([1]; inoculum 1 × 10^6 cells/ml) | MIC ([1]; inoculum 1 × 10^8 cells/ml) | MIC [2, 12] | MIC [2, 13] | MIC [3, 14] | MIC [3, 15] | MIC [4, 16] | MIC [4, 17] | MIC [5, 18] | MIC [5, 19] | MIC [6, 20] | MIC [6, 21] | MIC [7, 22] | MIC [7, 23] | MIC [8, 12] | MIC [8, 13] | MIC ([9]; inoculum 1 × 10^6 cells/ml) | MIC ([9]; inoculum 1 × 10^8 cells/ml) | MIC [10, 24] | MIC [10, 25] | further results
1 | CC1CCc2c(N3CCN(C)CC3)c(Cl)cc3c(=O)c(C(=O)O)cn1c23 (centres unmarked) [Compound U, 8-(4-Methyl-1-piperazinyl)-9-chloro-5-methyl-6,7-dihydro-1-oxo-1H,5H--benzo[ij]-quinolizine-2-carboxylic acid] | 0.2 mg/L (≈ 0.532 µM) | 0.2 mg/L (≈ 0.532 µM) | 0.2 mg/L (≈ 0.532 µM) | 0.2 mg/L (≈ 0.532 µM) | 0.4 mg/L (≈ 1.06 µM) | 0.4 mg/L (≈ 1.06 µM) | 3.1 mg/L (≈ 8.25 µM) | 3.1 mg/L (≈ 8.25 µM) | 6.3 mg/L (≈ 16.8 µM) | 6.3 mg/L (≈ 16.8 µM) | 1.6 mg/L (≈ 4.26 µM) | 1.6 mg/L (≈ 4.26 µM) | ≤ 0.05 mg/L | ≤ 0.05 mg/L | 0.4 mg/L (≈ 1.06 µM) | 0.4 mg/L (≈ 1.06 µM) | 0.1 mg/L (≈ 0.266 µM) | 0.2 mg/L (≈ 0.532 µM) | 0.4 mg/L (≈ 1.06 µM) | 0.8 mg/L (≈ 2.13 µM) | MIC [11, 26]: 3.1 mg/L (≈ 8.25 µM); MIC [11, 27]: 3.1 mg/L (≈ 8.25 µM)
2 | CC1CCc2c(N3CCN(C=O)CC3)c(Cl)cc3c(=O)c(C(=O)O)cn1c23 (centres unmarked) [Compound V, 8-(4-Formyl-1-piperazinyl)-9-chloro-5-methyl-6,7-dihydro-1-oxo-1H,5H--benzo[ij]-quinolizine-2-carboxylic acid] | 0.8 mg/L (≈ 2.05 µM) | 0.8 mg/L (≈ 2.05 µM) | 0.8 mg/L (≈ 2.05 µM) | 0.8 mg/L (≈ 2.05 µM) | 0.8 mg/L (≈ 2.05 µM) | 0.8 mg/L (≈ 2.05 µM) | 12.5 mg/L (≈ 32.1 µM) | 12.5 mg/L (≈ 32.1 µM) | 6.3 mg/L (≈ 16.2 µM) | 12.5 mg/L (≈ 32.1 µM) | 1.6 mg/L (≈ 4.1 µM) | 3.1 mg/L (≈ 7.95 µM) | 0.2 mg/L (≈ 0.513 µM) | 0.2 mg/L (≈ 0.513 µM) | 3.1 mg/L (≈ 7.95 µM) | 3.1 mg/L (≈ 7.95 µM) | 0.4 mg/L (≈ 1.03 µM) | 0.8 mg/L (≈ 2.05 µM) | 0.2 mg/L (≈ 0.513 µM) | 0.2 mg/L (≈ 0.513 µM) | MIC [11, 26]: 1.6 mg/L (≈ 4.1 µM); MIC [11, 27]: 3.1 mg/L (≈ 7.95 µM)
3 | CC1CCc2c(N3CCN(C)CC3)c(F)cc3c(=O)c(C(=O)O)cn1c23 (centres unmarked) [Compound W, 8-(4-Methyl-1-piperazinyl)-9-fluoro-5-methyl-6,7-dihydro-1-oxo-1H,5H--benzo[ij]-quinolizine-2-carboxylic acid] | 0.4 mg/L (≈ 1.11 µM) | 0.4 mg/L (≈ 1.11 µM) | 0.2 mg/L (≈ 0.556 µM) | 0.4 mg/L (≈ 1.11 µM) | 0.4 mg/L (≈ 1.11 µM) | 0.4 mg/L (≈ 1.11 µM) | 1.6 mg/L (≈ 4.45 µM) | 3.1 mg/L (≈ 8.63 µM) | 3.1 mg/L (≈ 8.63 µM) | 6.3 mg/L (≈ 17.5 µM) | 1.6 mg/L (≈ 4.45 µM) | 1.6 mg/L (≈ 4.45 µM) | ≤ 0.05 mg/L | 0.1 mg/L (≈ 0.278 µM) | 0.4 mg/L (≈ 1.11 µM) | 0.4 mg/L (≈ 1.11 µM) | 0.2 mg/L (≈ 0.556 µM) | 0.2 mg/L (≈ 0.556 µM) | 0.4 mg/L (≈ 1.11 µM) | 0.4 mg/L (≈ 1.11 µM) | MIC [11, 26]: 1.6 mg/L (≈ 4.45 µM); MIC [11, 27]: 1.6 mg/L (≈ 4.45 µM)
4 | CC1CCc2c(N3CCNCC3)c(F)cc3c(=O)c(C(=O)O)cn1c23 (centres unmarked) [Compound X, 8-(1-Piperazinyl)-9-fluoro-5-methyl-6,7-dihydro-1-oxo-1H,5H--benzo[ij]quinolizine-2-carboxylic acid hydrobromide] | – | – | – | – | – | – | – | – | – | – | – | – | – | – | – | – | – | 0.2 mg/L | – | – | MIC [1]: 0.4 mg/L; MIC [2, 23]: 0.4 mg/L; MIC [3, 28]: 0.1 mg/L; MIC [4, 29]: 1.6 mg/L; MIC [5, 30]: 1.6 mg/L; MIC [6, 31]: 1.6 mg/L; MIC [7, 13]: 0.1 mg/L; MIC [8, 23]: 0.8 mg/L; MIC [10, 32]: 0.8 mg/L; MIC [11, 33]: 3.1 mg/L
5 | CC1Cc2c(N3CCNCC3)c(Cl)cc3c(=O)c(C(=O)O)cn1c23 (centres unmarked) [Compound Y, 8-Chloro-9-(1-piperazinyl)-2-methyl-6-oxo-1,2-dihydro-6H--pyrrolo[3,2,1-ij]-quinoline-5-carboxylic acid] | – | – | – | – | – | – | – | – | – | – | – | – | – | – | – | – | ≤ 0.05 mg/L | 0.1 mg/L (≈ 0.288 µM) | – | – | MIC [1]: 0.2 mg/L (≈ 0.575 µM); Minimum Inhibitory Concentration ([1]; inoculum 1 × 10^6 cells/ml): 0.2 µg/mL; MIC [2, 22]: 0.2 mg/L (≈ 0.575 µM); MIC [2, 23]: 0.4 mg/L (≈ 1.15 µM); MIC ([3]; NIH96, read-out: Minimum Inhibitory Concentration, inoculum 1 × 10^6 cells/ml): 0.1 mg/L (≈ 0.288 µM); MIC [3, 28]: 0.2 mg/L (≈ 0.575 µM); MIC ([4]; ATCC10145, read-out: Minimum Inhibitory Concentration, inoculum 1 × 10^6 cells/ml): 1.6 mg/L (≈ 4.6 µM); MIC [4, 29]: 1.6 mg/L (≈ 4.6 µM); MIC ([5]; E2, read-out: Minimum Inhibitory Concentration, inoculum 1 × 10^6 cells/ml): 3.1 mg/L (≈ 8.91 µM); MIC [5, 30]: 3.1 mg/L (≈ 8.91 µM); MIC ([6]; NCTC10490, read-out: Minimum Inhibitory Concentration, inoculum 1 × 10^6 cells/ml): 1.6 mg/L (≈ 4.6 µM); MIC [6, 31]: 1.6 mg/L (≈ 4.6 µM); MIC [7, 12]: ≤ 0.05 mg/L; MIC [7, 13]: 0.1 mg/L (≈ 0.288 µM); MIC [8, 22]: 0.4 mg/L (≈ 1.15 µM); MIC [8, 23]: 0.8 mg/L (≈ 2.3 µM); MIC ([10]; FDA209, read-out: Minimum Inhibitory Concentration, inoculum 1 × 10^6 cells/ml): 3.1 mg/L (≈ 8.91 µM); MIC [10, 32]: 3.1 mg/L (≈ 8.91 µM); MIC ([11]; IIDS23, read-out: Minimum Inhibitory Concentration, inoculum 1 × 10^6 cells/ml): 6.3 mg/L (≈ 18.1 µM); MIC [11, 33]: 12.5 mg/L (≈ 35.9 µM)
6 | CC1Cc2c(N3CCN(C)CC3)c(Cl)cc3c(=O)c(C(=O)O)cn1c23 (centres unmarked) [Compound Z, 8-Chloro-9-(4-methyl-1-piperazinyl)-2-methyl-6-oxo-1,2-dihydro-6H--pyrrolo[3,2,1-ij]-quinoline-5-carboxylic acid] | 0.2 mg/L (≈ 0.553 µM) | 0.2 mg/L (≈ 0.553 µM) | 0.2 mg/L (≈ 0.553 µM) | 0.2 mg/L (≈ 0.553 µM) | 0.2 mg/L (≈ 0.553 µM) | 0.4 mg/L (≈ 1.11 µM) | 3.1 mg/L (≈ 8.57 µM) | 3.1 mg/L (≈ 8.57 µM) | 3.1 mg/L (≈ 8.57 µM) | 6.3 mg/L (≈ 17.4 µM) | 3.1 mg/L (≈ 8.57 µM) | 3.1 mg/L (≈ 8.57 µM) | 0.1 mg/L (≈ 0.276 µM) | 0.1 mg/L (≈ 0.276 µM) | 0.4 mg/L (≈ 1.11 µM) | 0.4 mg/L (≈ 1.11 µM) | 0.2 mg/L (≈ 0.553 µM) | 0.2 mg/L (≈ 0.553 µM) | 0.4 mg/L (≈ 1.11 µM) | 0.8 mg/L (≈ 2.21 µM) | MIC [11, 26]: 6.3 mg/L (≈ 17.4 µM); MIC [11, 27]: 12.5 mg/L (≈ 34.5 µM)
7 | CC1Cc2c(N3CCN(C)CC3)c(F)cc3c(=O)c(C(=O)O)cn1c23 (centres unmarked) [a] | 0.1 mg/L (≈ 0.29 µM) | 0.1 mg/L (≈ 0.29 µM) | 0.2 mg/L (≈ 0.579 µM) | 0.2 mg/L (≈ 0.579 µM) | 0.1 mg/L (≈ 0.29 µM) | 0.2 mg/L (≈ 0.579 µM) | 1.6 mg/L (≈ 4.63 µM) | 1.6 mg/L (≈ 4.63 µM) | 1.6 mg/L (≈ 4.63 µM) | 1.6 mg/L (≈ 4.63 µM) | 1.6 mg/L (≈ 4.63 µM) | 1.6 mg/L (≈ 4.63 µM) | ≤ 0.05 mg/L | ≤ 0.05 mg/L | 0.2 mg/L (≈ 0.579 µM) | 0.2 mg/L (≈ 0.579 µM) | 0.1 mg/L (≈ 0.29 µM) | 0.1 mg/L (≈ 0.29 µM) | 0.4 mg/L (≈ 1.16 µM) | 0.8 mg/L (≈ 2.32 µM) | MIC [11, 26]: 3.1 mg/L (≈ 8.98 µM); MIC [11, 27]: 6.3 mg/L (≈ 18.2 µM)

Reference: US4416884A, “Piperazinylbenzoheterocyclic compounds” (Otsuka Pharmaceutical Co., Ltd., priority 1978, dated 1983)
